Experimental data: EP1492876B1, “CATIONIC AMPHIPHILES FOR INTRACELLULAR DELIVERY OF THERAPEUTIC MOLECULES, COMPOSITION, PROCESS AND USE THEREOF” (COUNCIL OF SCIENTIFIC AND INDUSTRIAL RESEARCH, priority 2002, dated 2003)

Key:
DNA = assay: Lipid:DNA interactions assay (ethidium bromide exclusion, fluorescence); type: binding; details: EtBr: pCMV β-gal complex titrated with lipid, TE buffer pH 8.0; Figure 2
Description: Lipid:DNA Interactions Assay. Intercalation-induced fluorescence increase and competition with cationic lipids to bind to DNA has made Ethidium Bromide (EtBr) an excellent tool to study cationic lipid-DNA interactions. To assess the representative lipid:DNA interactions for the cationic lipids of the present invention, we have titrated the EtBr: pCMV β-gal complex with increasing amounts of cationic lipids 1-5.
The extent of Et.Br binding to the DNA was monitored by the changes in the fluorescence. EtBr fluorescence was monitored in Hitachi 4500 fluorimeter by setting the excitation wavelength at 518 nm and emission wavelength at 585 nm. To one ml of TE buffer (pH 8.0), 0.78 nmoles of DNA and 2.5 nmoles of EtBr were added. The change in fluorescence was monitored after adding small volumes of lipids 1-5 to the EtBr:DNA complex. Arbitrary fluorescence values were recorded after allowing sufficient time for equilibration. […] Percent fluorescence was calculated considering the fluorescence value in the absence of lipid as 100.

[1] = MTT based viability assay (toxicity assay); type: cell-based; details: monkey; COS-1 cells, 3:1 charge ratio
Experimental: Toxicity Assays. An MTT based viability assay was performed to assess the cytotoxicity of lipids 1-5 at various lipid:DNA charge ratios with COS-1 cells as described previously (Banerjee, R. et al. 1999). […] For lipids 1, 4 and 5 at a 3:1 charge ratio the toxicity varied from 15-25 % of the treated cells. The toxicity of lipid 2 (with shorter alkyl chains) may originate from its probable detergent-like cell-lysing activity.

COS-1 cells = assay: Cell transfection (β-galactosidase reporter gene activity); type: cell-based; details: 0.15 µg plasmid DNA, lipid 0.05 - 4.3 nmoles, reporter gene activity after 48 h, Figure 1, compared with DMRIE
Experimental: Similar examples of plasmid include PGL-2 and PGL-3 of Promega and others.
Cell Transfection. COS-1 cells were seeded at a density of 15,000 cells/well in a 96-well plate eighteen hours before the transfection. 0.15 µg of plasmid DNA was complexed with varying amount of lipid (0.05 - 4.3 nmoles) in 13 µl of plain DMEM medium for 30 min. The charge ratios were varied from 0.1 : 1 to 9 : 1 (+/-) over this range of the lipid. The complex was diluted to 100 µl with plain DMEM and added to the wells. After 3 h of incubation, 100 µl of DMEM with 10 % FCS was added to the cells. The medium was changed to 10 % complete medium after 24 h and the reporter gene activity was estimated after 48 h. The cells were washed twice with PBS and lysed in 50 µl of lysis buffer (0.25 M Tris.HCl, pH 8.0 and 0.5% NP40). Care was taken to ensure complete lysis. The β-galactosidase activity per well was estimated by adding 50 µl of 2X substrate solution (1.33 mg/ml of ONPG, 0.2 M sodium phosphate, pH 7.15 and 2 mM magnesium chloride) to the lysate in a 96-well plate. Absorption at 405 nm was converted to β-galactosidase units by using calibration curve constructed with pure commercial β-galactosidase enzyme. The values of β-galactosidase units in replicate plates assayed on the same day varied by less than 30 %. […]

Compound | lipid:DNA interaction (ability to exclude ethidium bromide from DNA) (DNA) | cytotoxicity [1] [%] | in vitro transfection efficiency (COS-1 cells)
CCCCCCCC/C=C\CCCCCCCC[N+]1(CCCCCCCCCCCCCCCCCC)CC(O)C(O)C1 (stereo not drawn) [compound 5] | interact poorly with DNA | 15 to 25 | 
CCCCCCCCCCCCCCCCCC[N+]1(CCCCCCCCCCCCCCCCCC)CC(O)C(O)C1 (stereo not drawn) [compound 4] | interact poorly with DNA | 15 to 25 | 
CCCCCCCCCCCC[N+]1(CCCCCCCCCCCC)CC(O)C(O)C1 (stereo not drawn) [compound 1] | interact poorly with DNA | 15 to 25 | 
CCCCCCCCCCCCCCCC[N+]1(CCCCCCCCCCCCCCCC)CC(O)C(O)C1 (stereo not drawn) [compound 3] | interact with DNA equally well up to lipid:DNA ratio of 1.25 or so |  | 
CCCCCCCCCCCCCC[N+]1(CCCCCCCCCCCCCC)CC(O)C(O)C1 (stereo not drawn) [compound 2] | interact with DNA equally well up to lipid:DNA ratio of 1.25 or so |  | comparable to or better than that of DMRIE
